Experimental data from patent publication US20060252807A1, “Novel ortho-terphenyl inhibitors of p38 kinase and methods of treating inflammatory disorders” (Kalypsys, Inc., priority 2005, published 2006).

Molecular target: T1, active p38 alpha enzyme (Upstate Biotechnology) (Homo sapiens, UniProt Q16539)
T1 construct: purchased Upstate Biotechnology
Experiment: p38α biochemical assay (ATP turnover, luminescent detection, Cambrex PKlight)
Conditions: p38α biochemical assay, Table 1 Biological Activity
Procedure: The p38α biochemical assay employed is based on measurement of total ATP turnover following enzyme incubation with substrate in the presence of ATP with the use of a luminescent detection reagent (Cambrex PKlight). The assays were performed in 1536-well white opaque plates.
The final volume was 7.5005 μL as prepared prepared from the addition of 5 ul of kinase reaction (p38 alpah+MapkapK2+ATP) with 0.0005 μL compound dissolved in DMSO, and 2.5 ul of the detection reagent. Assay buffer contains the following reagents to give final concentration in the assay: 200 mM Tris, 100 mM MgCl2, 1.5 mM EGTA, 4 mM CaCl2, 20 mM MOPS, 1 mM EDTA, 1% glycerol, 0.1% B-Mecaptoethanol, and 1 mg/ml BSA. Test compounds are pinned using proprietary pintool technology (Kalypsys, Inc) and delivered as […] amounts into the 5 ul mixture of active p38 alpha enzyme (Upstate Biotechnology) and MapkapK2 (Upstate Biotechnology) whole protein as a substrate for phosphorylation in the presence of 1.4 uM final concentration ATP. Reactions are incubated at 30C for 2 hours and detection reagent is added in 2.5 ul/well amounts. Assay is read using a Perkin Elmer Viewlux.

T1 sequence (Q16539 whole entry): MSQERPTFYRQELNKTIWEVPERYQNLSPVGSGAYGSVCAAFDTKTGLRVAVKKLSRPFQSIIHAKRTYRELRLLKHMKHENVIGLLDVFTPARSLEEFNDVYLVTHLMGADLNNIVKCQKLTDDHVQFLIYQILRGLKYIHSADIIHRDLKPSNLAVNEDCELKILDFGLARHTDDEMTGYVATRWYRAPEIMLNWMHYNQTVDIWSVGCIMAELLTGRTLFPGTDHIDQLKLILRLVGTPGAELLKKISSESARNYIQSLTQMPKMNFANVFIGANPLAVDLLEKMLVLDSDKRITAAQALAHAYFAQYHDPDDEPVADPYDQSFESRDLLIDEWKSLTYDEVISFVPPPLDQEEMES

Molecule	IC50
Cc1onc(-c2ccc(Cl)cc2)c1-c1ccn(C(=O)NC(C)C)n1 [Example 2, 3-|3-(4-Chloro-phenyl)-5-methyl-isoxazol-4-yl|-pyrazole-1-carboxylic acid isopropylamide]	≤ 1000 nM
CNC(=O)n1ccc(-c2c(-c3ccc(Cl)cc3)noc2C)n1 [Example 3, 3-|3-(4-Chloro-phenyl)-5-methyl-isoxazol-4-yl|-pyrazole-1-carboxylic acid methylamide]	> 1000 nM
CCC(C)NC(=O)n1ccc(-c2c(-c3ccc(Cl)cc3)noc2C)n1 (stereo not drawn) [Example 4, 3-|3-(4-Chloro-phenyl)-5-methyl-isoxazol-4-yl|-pyrazole-1-carboxylic acid sec-butylamide]	≤ 1000 nM
Cc1onc(-c2ccc(Cl)cc2)c1-c1ccn(C(=O)NCCO)n1 [Example 5, 3-|3-(4-Chloro-phenyl)-5-methyl-isoxazol-4-yl|-pyrazole-1-carboxylic acid (2-hydroxy-ethyl)-amide]	≤ 1000 nM
Cc1onc(-c2ccc(Cl)cc2)c1-c1ccn(C(=O)NC(C)CO)n1 (stereo not drawn) [Example 6, 3-|3-(4-Chloro-phenyl)-5-methyl-isoxazol-4-yl|-pyrazole-1-carboxylic acid (2-hydroxy-1-methyl-ethyl)-amide]	≤ 1000 nM
Cc1onc(-c2ccc(Cl)cc2)c1-c1ccn(C(=O)NC2CC2)n1 [Example 7, 3-|3-(4-Chloro-phenyl)-5-methyl-isoxazol-4-yl|-pyrazole-1-carboxylic acid cyclopropylamide]	> 1000 nM
Cc1onc(-c2ccc(Cl)cc2)c1-c1ccn(C(=O)NC2CCCCC2)n1 [Example 8, 3-|3-(4-Chloro-phenyl)-5-methyl-isoxazol-4-yl|-pyrazole-1-carboxylic acid cyclohexylamide]	≤ 1000 nM
Cc1onc(-c2ccc(Cl)cc2)c1-c1ccn(C(=O)NC2CCCC2)n1 [Example 9, 3-|3-(4-Chloro-phenyl)-5-methyl-isoxazol-4-yl|-pyrazole-1-carboxylic acid cyclopentylamide]	≤ 1000 nM
Cc1onc(-c2ccc(Cl)cc2)c1-c1ccn(C(=O)NC2Cc3ccccc3C2)n1 [Example 10, 3-|3-(4-Chloro-phenyl)-5-methyl-isoxazol-4-yl|-pyrazole-1-carboxylic acid indan-2-ylamide]	> 1000 nM
Cc1onc(-c2ccc(Cl)cc2)c1-c1ccn(C(=O)NCc2ccco2)n1 [Example 11, 3-|3-(4-Chloro-phenyl)-5-methyl-isoxazol-4-yl|-pyrazole-1-carboxylic acid (furan-2-ylmethyl)-amide]	> 1000 nM
Cc1onc(-c2ccc(Cl)cc2)c1-c1ccn(C(=O)NCC2CCCO2)n1 (stereo not drawn) [Example 12, 3-|3-(4-Chloro-phenyl)-5-methyl-isoxazol-4-yl|-pyrazole-1-carboxylic acid (tetrahydro-furan-2-ylmethyl)-amide]	> 1000 nM
Cc1onc(-c2ccc(Cl)cc2)c1-c1ccn(C(=O)N(C)C(C)C)n1 [Example 13, 3-|3-(4-Chloro-phenyl)-5-methyl-isoxazol-4-yl|-pyrazole-1-carboxylic acid isopropyl-methyl-amide]	> 1000 nM
Cc1onc(-c2ccc(Cl)cc2)c1-c1ccn(C(=O)NC(CO)CO)n1 [Example 14, 3-|3-(4-Chloro-phenyl)-5-methyl-isoxazol-4-yl|-pyrazole-1-carboxylic acid (2-hydroxy-1-hydroxymethyl-ethyl)-amide]	> 1000 nM
Cc1onc(-c2ccc(Cl)cc2)c1-c1ccn(C(=O)NCC(C)C)n1 [Example 15, 3-|3-(4-Chloro-phenyl)-5-methyl-isoxazol-4-yl|-pyrazole-1-carboxylic acid isobutyl-amide]	≤ 1000 nM
Cc1onc(-c2ccc(Cl)cc2)c1-c1cc(C)n(C(=O)NC(C)C)n1 [Example 16, 3-|3-(4-Chloro-phenyl)-5-methyl-isoxazol-4-yl|-5-methyl-pyrazole-1-carboxylic acid isopropylamide]	≤ 1000 nM
Cc1onc(-c2cccc(C(F)(F)F)c2)c1-c1ccn(C(=O)NC(C)C)n1 [Example 19, 3-|5-Methyl-3-(3-trifluoromethyl-phenyl)-isoxazol-4-yl|-pyrazole-1-carboxylic acid isopropylamide]	> 1000 nM
Cc1onc(-c2ccc(Cl)cc2)c1-c1ccn(C(=O)CC(C)C)n1 [Example 20, 1-{3-|3-(4-Chloro-phenyl)-5-methyl-isoxazol-4-yl|-pyrazol-1-yl}-3-methyl-butan-1-one]	> 1000 nM
Cc1onc(-c2ccc(F)cc2Cl)c1-c1ccn(C(=O)NC(C)C)n1 [Example 21, 3-|3-(2-Chloro-4-fluoro-phenyl)-5-methyl-isoxazol-4-yl|-pyrazole-1-carboxylic acid isopropylamide]	≤ 1000 nM
COCc1onc(-c2ccc(Cl)cc2)c1-c1ccn(C(=O)NC(C)C)n1 [Example 22, 3-|3-(4-Chloro-phenyl)-5-methoxymethyl-isoxazol-4-yl|-pyrazole-1-carboxylic acid isopropylamide]	≤ 1000 nM

Results, then the molecule that gave them:

IC50	Molecule
≤ 1000 nM	Cc1onc(-c2ccc(F)c(Cl)c2)c1-c1ccn(C(=O)NC(C)C)n1 [Example 23, 3-|3-(3-Chloro-4-fluoro-phenyl)-5-methyl-isoxazol-4-yl|-pyrazole-1-carboxylic acid isopropylamide]
> 1000 nM	Cc1cc(Cl)ccc1-c1noc(C)c1-c1ccn(C(=O)NC(C)C)n1 [Example 24, 3-|3-(4-Chloro-2-methyl-phenyl)-5-methyl-isoxazol-4-yl|-pyrazole-1-carboxylic acid isopropylamide]
≤ 1000 nM	CC(C)NC(=O)n1ccc(-c2c(-c3ccc(F)cc3)noc2CN(C)C)n1 [Example 25, 3-|5-Dimethylaminomethyl-3-(4-fluoro-phenyl)-isoxazol-4-yl|-pyrazole-1-carboxylic acid isopropylamide]
≤ 1000 nM	CC(C)NC(=O)c1csc(-c2c(-c3ccc(F)cc3)noc2CN2CCNCC2)n1 [Example 28, 2-|3-(4-Fluoro-phenyl)-5-piperazin-1-ylmethyl-isoxazol-4-yl|-thiazole-4-carboxylic acid isopropylamide]
≤ 1000 nM	CC(C)NC(=O)c1csc(-c2c(-c3ccc(F)cc3)noc2CN(C)C)n1 [Example 29, 2-|5-Dimethylaminomethyl-3-(4-fluoro-phenyl)-isoxazol-4-yl|-thiazole-4-carboxylic acid isopropylamide]
> 1000 nM	CC(C)NC(=O)c1csc(-c2c(-c3ccc(F)cc3)noc2CN2CCCCC2)n1 [Example 30, 2-|3-(4-Fluoro-phenyl)-5-piperidin-1-ylmethyl-isoxazol-4-yl|-thiazole-4-carboxylic acid isopropylamide]
> 1000 nM	CCOC(=O)N1CCC(NCc2onc(-c3ccc(F)cc3)c2-c2nc(C(=O)NC(C)C)cs2)CC1 [Example 31]
> 1000 nM	CC(C)NC(=O)c1csc(-c2c(-c3ccc(F)cc3)noc2CNCCO)n1 [Example 32, 2-{3-(4-Fluoro-phenyl)-5-|(2-hydroxy-ethylamino)-methyl|-isoxazol-4-yl}-thiazole-4-carboxylic acid isopropylamide]
> 1000 nM	COCCNCc1onc(-c2ccc(F)cc2)c1-c1nc(C(=O)NC(C)C)cs1 [Example 33, 2-{3-(4-Fluoro-phenyl)-5-|(2-methoxy-ethylamino)-methyl|-isoxazol-4-yl}-thiazole-4-carboxylic acid isopropylamide]
≤ 1000 nM	Cc1onc(-c2ccc(F)cc2)c1-c1csc(C(=O)NC(C)C)n1 [Example 34]
≤ 1000 nM	CC(C)NC(=O)c1csc(-c2c(-c3ccc(F)cc3)noc2C2CCN(C(=O)CO)CC2)n1 [Example 36, 2-{3-(4-Fluoro-phenyl)-5-|1-(2-hydroxy-acetyl)-piperidin-4-yl|-isoxazol-4-yl}-thiazole-4-carboxylic acid isopropylamide]
≤ 1000 nM	CC(C)NC(=O)c1coc(-c2c(-c3ccc(F)cc3)noc2C2CCNCC2)n1 [Example 37, 2-|3-(4-Fluoro-phenyl)-5-piperidin-4-yl-isoxazol-4-yl|-oxazole-4-carboxylic acid isopropylamide]
> 1000 nM	Cc1nc(-c2ccc(F)cc2)c(-c2nc(C(N)=O)cs2)o1 [Example 39, 2-|4-(4-Fluoro-phenyl)-2-methyl-oxazol-5-yl|-thiazole-4-carboxylic acid amide]
≤ 1000 nM	CC(C)NC(=O)c1csc(-c2oc(CN(C)C)nc2-c2ccc(F)cc2)n1 [Example 42, 2-|2-Dimethylaminomethyl-4-(4-fluoro-phenyl)-oxazol-5-yl|-thiazole-4-carboxylic acid isopropylamide]

Same assay, conditions: p38α kinase; Table 1 Biological Activity

IC50	Molecule
> 1000 nM	2-|4-(4-Fluoro-phenyl)-5-oxo-2,5-dihydro-isoxazol-3-yl|-thiazole-4-carboxylic acid isopropyl amide [Example 2181]
> 1000 nM	COCCOCn1nc(-c2ccc(F)cc2)c(-c2nc(C=NOC)cs2)c1C (single isomer, unassigned) [Example 2186, 2-|3-(4-Fluoro-phenyl)-1-(2-methoxy-ethoxymethyl)-5-methyl-1H-pyrazol-4-yl|-thiazole-4-carbaldehyde O-methyl-oxime]
> 1000 nM	COCCOCn1nc(-c2ccc(F)cc2)c(-c2nc(C=NOC)cs2)c1C (single isomer, unassigned) [Example 2187, 2-|3-(4-Fluoro-phenyl)-1-(2-methoxy-ethoxymethyl)-5-methyl-1H-pyrazol-4-yl|-thiazole-4-carbaldehyde O-methyl-oxime]
